Experimental data published in patent US20050004138A1 (Pfizer Inc, priority 2003, published 2005).

Columns and labels:
Social Phobia = assay: Treatment of subjects diagnosed with Social Phobia; format: in vivo, human; settings: subjects aged 18 to 55 years with Social Phobia; about 40 to about 200 mg/day
Specific Phobia = assay: Treatment of subjects diagnosed with Specific Phobia; format: in vivo, human; settings: subjects aged 18 to 55 years with Specific Phobia; about 40 to about 200 mg/day

In the case of `O=C1Cc2cc(CCN3CCN(c4nsc5ccccc45)CC3)c(Cl)cc2N1` [Ziprasidone, 5-(2-(4-(1,2-benzisothiazol-3-yl)piperazinyl)ethyl)chlorooxindole], the “tolerability / side effects” value (Social Phobia) is reported as “well tolerated” and the “tolerability / side effects” value (Specific Phobia) is reported as “well tolerated”.
